Assays:
[1] = tested on: Human Anti-Pig Heart antibodies; experiment: ELISA: human antibodies eluted from pig heart binding to carbohydrate-BSA antigens; conditions: for Optical Density (405 nm): BSA well O.D. subtracted; for O.D. readings: most of the human anti-pig heart preparations
Description: (§1) Organs from two populations of pigs were used to purify human anti-pig antibodies. The pig strains were Poland China and Yorkshire. Antibody preparations were obtained by perfusing 100-200 ml of human plasma (O or AB) through pig hearts, pig kidneys or through a column containing solid support coated with pig red cell stroma. After washing the tissues thoroughly with 0.15 M NaCl, the retained antibodies were eluted from the tissue or column using 200 ml of 3M NaSCN. The antibodies were concentrated, and then the protein content determined. Carbohydrate antigens were made by covalent binding of the synthetic oligosaccharides with an aliphatic linking arm (CH2)8COOCH3 to BSA as described by Pinto and Bundle (1983)^19 and/or Lemieux, Bundle, Baker (U.S. Pat. No. 4,137,401)^13 (ten to twenty haptens per molecule of BSA). Example 5, infra, describes this procedure as applied to carbohydrate 2 of FIG. 1A. Structures and trivial names of some of the monosaccharides and oligosaccharides used are included in FIGS. 1A to 1H. The use of synthetic carbohydrate structures to detect antibody binding has been previously described in U.S. Pat. No. 4,137,401^13. The technology used for the ELISA assay for detecting anti-carbohydrate antibodies is a combination of the work from numerous groups. Wells in 96 microtitration plates (Flow Laboratories, Inc., McLean Va., U.S.A.) were coated by incubation at room temperature for 16 hours with 2 μg of BSA-glycoconjugates or BSA per well (20 μg BSA-conjugate/ml diluted in PBS). The coating solutions were removed and 200 μl/well of PBS containing 5% BSA was added. After a 4 hours incubation (22° C.), the wells were washed twice with PBS, then once with H2O. The plates were inverted, allowed to dry, and stored at room temperature. Immediately before testing, 200 μl of PBS containing 1% BSA (1% BSA/PBS) was added to each of the wells and left to stand for 10 to 20 minutes at ambient temperature. The human anti-pig preparations were diluted to between 15 to 70 μg of eluted protein per ml of 1% BSA/PBS. The BSA/PBS was removed and 100 μl of diluted anti-pig preparation was added to the appropriate wells, then incubated at 4° C. for 16 hours. The antibody preparations were removed and the wells were washed 4 times with PBS (200 μl/wash). Alkaline phosphatase-conjugated reagents (anti-human polyvalent (α, γ and μ chain specific), anti-human IgG (γ chain specific) and anti-human IgM (μ chain specific)) from Sigma Chemical Company (St. Louis, Mo., U.S.A.) were each diluted 1/500 in 1% BSA/PBS. One hundred μl of this mixture was added to each well. After 2 hours, wells were washed four times with PBS, then 100 μl/well of 1.0 mg of p-nitrophenyl phosphate/ml of 1 M diethanolamine-HCl (pH 9.8) containing 19% BSA and 500 μM MgCl2 was added. After 1 hour, optical densities at 405 nm (O.D.) were measured using a Microplate Autoreader (Model EL 309, BIO-TEK Instruments, Winooski, Vt., U.S.A.). The O.D. results for BSA-coated wells were subtracted from the results for the glycoconjugate-BSA-coated wells for each preparation. The assays were performed in duplicate.

[2] = tested on: Human Anti-Pig Kidney antibodies; experiment: ELISA: human antibodies eluted from pig kidney binding to carbohydrate-BSA antigens; conditions: BSA well O.D. subtracted
Description: as §1

[3] = tested on: pig kidney cell line (LLC-PK1); experiment: Chromium release assay, plasma incubated with soluble carbohydrate haptens; assay type: cell-based; conditions: heat inactivated human plasma (O and A), 1 ml incubated overnight at 4° C. with 0.215 g hapten; FIGS. 8A and 8B
Description: Undiluted heat-inactivated plasma (100 μl) was incubated with 100 μl of chromium-labelled target cells (2×10^4 cells) in 96 well V bottom microtiter plates (Dynatech Lab., Chantilly, Va., U.S.A.: Cat.# 1-220-25X) at 37° C. for 1 hour with shaking (20 rpm). A 1/15 dilution of rabbit complement (LOWTOX-M from Cedarlane Laboratories Ltd., Hornby, Ontario, Canada: Cat.# CL3051) was added to each well. The plate was again incubated for 1 hour at 37° C. with shaking. Plates were then spun at 1000 rpm and supernatants were counted for chromium content in the Beckman gamma 4000 counter (Beckman Instruments, Inc., Fullerton, Calif., U.S.A.). Spontaneous and total release controls were also run. Spontaneous counts were always less than 5% of the total counts, and typical total counts of cells ranged from 10,000 to 20,000 cpm.
This procedure was done to investigate the potential for inhibiting human preformed cytotoxic antibodies with carbohydrate(s) haptens. […] The chromium release assay was then performed with treated and untreated plasma; the pig kidney cell line (LLC-PK1) was used as the target cell.

[4] = tested on: human antibodies eluted from pig heart, pig kidney and/or pig red cell stroma; experiment: ELISA: human anti-pig antibody preparations overall binding to carbohydrate antigens
Description: Organs from two populations of pigs were used to purify human anti-pig antibodies. The pig strains were Poland China and Yorkshire. Antibody preparations were obtained by perfusing 100-200 ml of human plasma (O or AB) through pig hearts, pig kidneys or through a column containing solid support coated with pig red cell stroma. After washing the tissues thoroughly with 0.15 M NaCl, the retained antibodies were eluted from the tissue or column using 200 ml of 3M NaSCN. The antibodies were concentrated, and then the protein content determined. Carbohydrate antigens were made by covalent binding of the synthetic oligosaccharides with an aliphatic linking arm (CH2)8COOCH3 to BSA as described by Pinto and Bundle (1983)^19 and/or Lemieux, Bundle, Baker (U.S. Pat. No. 4,137,401)^13 (ten to twenty haptens per molecule of BSA). Example 5, infra, describes this procedure as applied to carbohydrate 2 of FIG. 1A. Structures and trivial names of some of the monosaccharides and oligosaccharides used are included in FIGS. 1A to 1H. The use of synthetic carbohydrate structures to detect antibody binding has been previously described in U.S. Pat. No. 4,137,401^13. […] After 1 hour, optical densities at 405 nm (O.D.) were measured using a Microplate Autoreader (Model EL 309, BIO-TEK Instruments, Winooski, Vt., U.S.A.). […]

[5] = Human Anti-Pig Heart preparation 5^AB, human AB plasma
[6] = Human Anti-Pig Heart preparation 6°, human O plasma
[7] = Human Anti-Pig Heart preparation 7^AB, human AB plasma
[8] = Human Anti-Pig Heart preparation 9°, human O plasma
[9] = Human Anti-Pig Kidney preparation 5 A°, human O plasma adsorbed onto tissue
[10] = Human Anti-Pig Kidney preparation 5 B^AB, human AB plasma adsorbed onto tissue
[11] = Human Anti-Pig Kidney preparation 6 A°, human O plasma
[12] = Human Anti-Pig Kidney preparation 6 B^AB, human AB plasma
[13] = Human Anti-Pig Kidney preparation 7 A^AB, human AB plasma
[14] = Human Anti-Pig Kidney preparation 7 B°, human O plasma
[15] = Human Anti-Pig Kidney preparation 8 A°, human O plasma, pig of A-phenotype
[16] = Human Anti-Pig Kidney preparation 9 B^AB, human AB plasma

Molecule	Optical Density (405 nm) [1, 5]	Optical Density (405 nm) [1, 6]	Optical Density (405 nm) [1, 7]	Optical Density (405 nm) [1, 8]	O.D. readings [1]	Optical Density (405 nm) [2, 9]	Optical Density (405 nm) [2, 10]	Optical Density (405 nm) [2, 11]	Optical Density (405 nm) [2, 12]	Optical Density (405 nm) [2, 13]	Optical Density (405 nm) [2, 14]	Optical Density (405 nm) [2, 15]	Optical Density (405 nm) [2, 16]	cytotoxic effect of antibodies to the pig cell line [3]	antibodies to the carbohydrate present in eluted antibody preparations ([4]; every preparation of antibodies tested (Table 1))	reactivity in ELISA ([4]; majority of samples tested, including anti-pig heart and anti-pig kidney)
N-acetyl-β-D-Glucosaminide [formula 25]	2.0	0.4	>2.0	1.5	some of the highest readings	0.5	0.7	0.4	1.0	1.1	0.5	0.1	0.1	–	–	–
C[C@@H]1O[C@@H](O[C@H]2C(O)O[C@H](CO)[C@H](O)[C@@H]2O[C@H]2O[C@H](CO)[C@H](O)[C@H](O)[C@H]2O)[C@@H](O)[C@H](O)[C@@H]1O (stereo partly shown) [B trisaccharide]	–	–	–	–	–	–	–	–	–	–	–	–	–	partially inhibited	–	–
C[C@@H]1O[C@@H](O)[C@H](O)[C@H](O)[C@H]1O [formula 31, α-L-Rhamnose]	0.7	0.4	>2.0	0.6	some of the highest readings	0.2	0.0	0.3	0.5	1.7	0.1	0.0	0.1	–	–	–
CC(=O)N[C@@H]1[C@@H](O)[C@H](O[C@@H]2O[C@H](CO)[C@@H](O)[C@H](O)[C@H]2NC(C)=O)[C@@H](CO)O[C@H]1O [formula 26, βGlcNAc(1-4)βGlcNAc]	0.5	0.2	>2.0	1.7	some of the highest readings	0.4	0.3	0.2	0.4	0.9	0.1	0.0	0.1	–	–	–
(αGal(1-3)βGal(1-4)βGlc-O—(CH2)8CONH)17-BSA [formula 2]	1.0	0.3	1.2	0.8	–	1.9	1.3	>2.0	>2.0	0.8	1.8	1.2	>2.0	–	present in every preparation	most reactivity
CC(=O)N[C@H]1[C@H](O[C@@H]2[C@H](O)[C@@H](O)[C@H](C)O[C@H]2O)O[C@H](CO)[C@@H](O)[C@@H]1O[C@@H]1O[C@@H](C)[C@H](O)[C@@H](O)[C@H]1O [formula 32, α-L-Rha(1-3)βGlcNAc(1-2)α-L-Rha]	1.0	0.3	1.6	1.1	some of the highest readings	1.4	0.8	0.1	0.3	1.9	0.8	0.1	0.1	–	–	–

Source: US6607723B1, “Methods and compositions for attenuating antibody-mediated xenograft rejection in human recipients” (priority 1991, dated 2003)
